# Assay results published in the Kinase Knowledgebase extract (Sharma et al. 2016).
# Molecular target: PIK3CG (human) (UniProt P48736)
# Assay: Inhibition of PIK3CG Kinase Activity
# Chain of PIK3CG (human) (P48736 whole entry, looked up): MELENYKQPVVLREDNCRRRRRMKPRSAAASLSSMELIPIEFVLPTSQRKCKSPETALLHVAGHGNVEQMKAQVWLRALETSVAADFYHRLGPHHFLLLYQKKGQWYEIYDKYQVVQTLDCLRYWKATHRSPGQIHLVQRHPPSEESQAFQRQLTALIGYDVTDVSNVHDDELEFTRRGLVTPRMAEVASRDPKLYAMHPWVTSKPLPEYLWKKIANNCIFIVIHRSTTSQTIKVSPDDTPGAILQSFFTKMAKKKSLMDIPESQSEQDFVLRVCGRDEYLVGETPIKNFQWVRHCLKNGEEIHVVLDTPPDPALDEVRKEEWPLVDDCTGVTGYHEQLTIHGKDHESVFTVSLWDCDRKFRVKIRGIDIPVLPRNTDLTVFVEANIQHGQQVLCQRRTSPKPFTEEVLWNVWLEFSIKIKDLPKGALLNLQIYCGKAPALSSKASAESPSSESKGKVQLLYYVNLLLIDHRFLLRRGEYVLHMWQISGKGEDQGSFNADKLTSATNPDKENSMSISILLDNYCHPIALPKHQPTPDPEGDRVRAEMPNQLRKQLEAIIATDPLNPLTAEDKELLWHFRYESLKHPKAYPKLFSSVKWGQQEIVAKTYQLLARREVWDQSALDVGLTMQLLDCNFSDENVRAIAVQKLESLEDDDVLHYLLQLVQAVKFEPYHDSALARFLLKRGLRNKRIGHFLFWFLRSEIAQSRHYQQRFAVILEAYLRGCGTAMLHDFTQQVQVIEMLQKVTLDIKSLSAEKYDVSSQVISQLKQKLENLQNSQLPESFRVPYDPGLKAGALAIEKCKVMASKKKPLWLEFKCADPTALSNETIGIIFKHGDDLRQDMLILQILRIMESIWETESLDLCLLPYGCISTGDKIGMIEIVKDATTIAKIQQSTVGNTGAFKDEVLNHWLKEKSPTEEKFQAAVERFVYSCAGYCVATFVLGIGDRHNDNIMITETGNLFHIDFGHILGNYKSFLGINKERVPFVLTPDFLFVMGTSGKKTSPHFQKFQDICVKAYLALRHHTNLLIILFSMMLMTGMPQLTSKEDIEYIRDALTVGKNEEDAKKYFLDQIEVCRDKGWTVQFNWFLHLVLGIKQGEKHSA
row,Ki,Compound
1,< 100 nM,COc1cncc(-c2cc(C)c3c(n2)CN(c2cnn(C[C@H](C)F)c2)C3=O)c1
2,< 100 nM,Cc1cc(-c2cncc(OCC(F)F)c2)nc2c1C(=O)N(c1cnn(CC(F)F)c1)C2
3,< 100 nM,COc1cc(N2Cc3nc(-c4cnc(OC)c(OC)c4)ccc3C2=O)n[nH]1
4,< 100 nM,CCO[C@H]1c2nc(-c3cnc(OC)c(OC)c3)cc(C)c2C(=O)N1c1cnn(CC(F)(F)F)c1
5,< 100 nM,COc1cc(-c2ccc3c(n2)CN(c2cnn(CCC(=O)O)c2)C3=O)cnc1OC
6,< 100 nM,COc1ncc(-c2cc(C)c3c(n2)C(C)(C)N(c2cnn(CC(F)(F)F)c2)C3=O)cc1C(=O)NCC(C)(C)O
7,< 100 nM,CCc1cc(-c2cnc(OC)c(OC)c2)nc2c1C(=O)N(c1cnn(CC(F)(F)F)c1)C2(C)C
8,< 100 nM,COc1cc(-c2ccc3c(c2)CN(c2cccc(CC#N)c2)C3=O)cnc1OC
9,< 100 nM,COc1cncc(-c2cc(C)c3c(n2)C(C)N(c2cn(C)cn2)C3=O)c1 (stereo not drawn)
10,< 100 nM,CCc1cc(N2Cc3nc(-c4cnc(OC)c(OC)c4)ccc3C2=O)nn1C[C@H](C)O
11,< 100 nM,COc1ccc(-c2cc(C)c3c(n2)CN(c2cnn(CC(F)(F)F)c2)C3=O)nc1OC
12,< 100 nM,CCOc1ncc(-c2cc(C)c3c(n2)[C@@]2(CCCO2)N(c2cnn(CC(F)(F)F)c2)C3=O)cc1OC
13,< 100 nM,COc1cc(-c2ccc3c(n2)CN(c2cnn(Cc4cscn4)c2)C3=O)cnc1OC
14,100 to 490 nM,COc1cc(-c2ccc3c(c2)CN(c2cnn(CC#N)c2)C3=O)cnc1Cl
15,< 100 nM,Cc1cc(-c2cncc(OC(F)F)c2)nc2c1C(=O)N(c1cnn(C[C@H](C)O)c1)C2
16,< 100 nM,COC(=O)Cc1cncc(N2Cc3nc(-c4cnc(OC)c(OC)c4)ccc3C2=O)c1
17,< 100 nM,CCn1ccc(N2Cc3nc(-c4cnc(OC)c(OCC(F)F)c4)cc(C)c3C2=O)n1
18,< 100 nM,CCn1cc(N2C(=O)c3ccc(-c4cnc(OC)c(OC)c4)nc3[C@@H]2C)cn1
19,< 100 nM,COc1cc(-c2cc(C)c3c(n2)C(O)N(c2nc(C)cs2)C3=O)cnc1OC (stereo not drawn)
20,< 100 nM,CCNC(=O)c1cc(-c2cc(C)c3c(n2)C2(CCOC2)N(c2cnn(CC(F)(F)F)c2)C3=O)cnc1OC (stereo not drawn)
21,< 100 nM,COc1cc(-c2cc(C)c3c(n2)CN(c2ccn(C(F)F)c(=O)c2)C3=O)cnc1OC
22,< 100 nM,COCc1cc(N2Cc3nc(-c4cnc(OC)c(OC)c4)ccc3C2=O)nn1CC(F)(F)F
23,< 100 nM,COc1cc(-c2ccc3c(n2)C(C)(C)N(c2cn[nH]c2)C3=O)cnc1OC

row,Ki,Compound
1,< 100 nM,COc1cc(-c2ccc3c(n2)[C@@H](C)N(c2ccn(CC(C)(C)O)n2)C3=O)cnc1OC
2,< 100 nM,COc1cc(-c2ccc3c(n2)CN(c2cnn(C4CCOCC4)c2)C3=O)cnc1OC
3,< 100 nM,COc1cc(-c2ccc3c(n2)[C@@H](C)N(c2ccn(CC(C)(C)F)n2)C3=O)cnc1OC
4,< 100 nM,CCOc1ncc(-c2cc(C)c3c(n2)C(OC)N(c2cnn(CC(F)(F)F)c2)C3=O)cc1OC (stereo not drawn)
5,< 100 nM,COc1ncc(-c2cc(C)c3c(n2)CN(c2cnn(CC#N)c2)C3=O)c(OC)n1
6,100 to 490 nM,COCCn1ccc(N2Cc3nc(-c4cnc(OC)c(OC)c4)ccc3C2=O)n1
7,< 100 nM,CCn1cc(N2Cc3nc(-c4cnc(OC)c(OCC5CC5)c4)cc(C)c3C2=O)cn1
8,< 100 nM,CCOCCOc1cc(-c2cc(C)c3c(n2)CN(c2cnn(CC(F)(F)F)c2)C3=O)cnc1OC
9,< 100 nM,COc1cc(-c2ccc3c(n2)CN(c2ccc(OC(CO)C(F)(F)F)nc2)C3=O)cnc1OC (stereo not drawn)
10,< 100 nM,COc1cc(-c2cc(C)c3c(n2)[C@H](OC)N(c2cnn(CC(F)(F)F)c2)C3=O)cnc1OC
11,< 100 nM,COc1cncc(-c2cc(C)c3c(n2)CN(c2cn(CC(F)(F)F)cn2)C3=O)c1
12,< 100 nM,COc1cncc(-c2cc(C)c3c(n2)[C@@H](C)N(c2cnn(CC(F)(F)F)c2)C3=O)c1
13,< 100 nM,CCCNC(=O)c1cncc(-c2cc(C)c3c(n2)C(C)(C)N(c2cnn(CC(F)(F)F)c2)C3=O)c1
14,< 100 nM,COc1cc(-c2ccc3c(n2)C(C)N(c2ccn(CC(C)(C)F)n2)C3=O)cnc1OC (stereo not drawn)
15,100 to 490 nM,CCOC(=O)c1cncc(N2Cc3nc(-c4cnc(OC)c(OC)c4)ccc3C2=O)c1
16,< 100 nM,COc1cc(-c2cc(C)c3c(c2)CN(c2cnn(CC#N)c2)C3=O)cnc1OC
17,< 100 nM,Cc1cc(-c2cnc(C)c(OCC(F)(F)F)c2)nc2c1C(=O)N(c1ccn([C@H]3CCOC3)n1)C2
18,100 to 490 nM,COc1cncc(-c2cc(C)c3c(n2)C2(CCNCC2)N(c2cnn(CC(F)(F)F)c2)C3=O)c1
19,< 100 nM,COc1cc(-c2ccc3c(c2)CN(c2cnn(CC(F)(F)F)c2)C3=O)cnc1OC
20,< 100 nM,COCn1cc(N2Cc3nc(-c4cnc(OC)c(OC)c4)cc(C)c3C2=O)cn1
21,< 100 nM,COc1cc(-c2ccc3c(n2)CN(c2ccc(N4CCC[C@@H]4CO)nc2)C3=O)cnc1OC
22,< 100 nM,CCn1cc(N2Cc3nc(-c4cnc(OC)c(OC(F)F)c4)ccc3C2=O)cn1
23,< 100 nM,COc1cc(-c2cc(C)c3c(n2)[C@]2(CCCO2)N(c2cnn(CC(F)(F)F)c2)C3=O)cnc1OC(C)C

row,Ki,Compound
1,< 100 nM,Cc1cc(-c2cncc(C#N)c2)nc2c1C(=O)N(c1cnn(CC#N)c1)C2
2,< 100 nM,COc1cc(-c2cc(C)c3c(n2)C(O[C@H]2CCOC2)N(c2cnn(CC(F)(F)F)c2)C3=O)cnc1OC (stereo partly drawn)
3,< 100 nM,COc1cc(-c2ccc3c(n2)[C@H](C)N(c2cnn(CC#N)c2)C3=O)cnc1OC
4,< 100 nM,CCOc1cncc(-c2cc(C)c3c(n2)CN(c2cnn(CC(F)F)c2)C3=O)c1
5,< 100 nM,COc1cc(-c2cc(Cl)c3c(c2)CN(c2cnn(CC#N)c2)C3=O)cnc1OC
6,< 100 nM,CCn1ccc(N2C(=O)c3c(C)cc(-c4cncc(OCC(F)F)c4)nc3[C@H]2C)n1
7,< 100 nM,COc1cncc(-c2cc(C)c3c(n2)[C@H](C)N(c2ccn(CC(C)(C)O)n2)C3=O)c1
8,< 100 nM,COc1ncc(-c2cc(C)c3c(n2)C(C)(C)N(c2cnn(CC(F)(F)F)c2)C3=O)cc1C(=O)NC1CC1
9,< 100 nM,Cc1cc(-c2cncc(OC(F)F)c2)nc2c1C(=O)N(c1cnn(CC(F)(F)F)c1)[C@H]2C
10,< 100 nM,COc1cc(-c2ccc3c(n2)CN(c2cc(C)[nH]n2)C3=O)cnc1OC
11,< 100 nM,COc1cc(-c2ccc3c(n2)CN(c2cncs2)C3=O)cnc1OC
12,< 100 nM,Cc1cc(-c2cncc(OC(F)F)c2)nc2c1C(=O)N(c1cn[nH]c1)[C@H]2C
13,< 100 nM,COc1cc(-c2ccc3c(n2)CN(c2cnn([C@@H](CO)C(F)(F)F)c2)C3=O)cnc1OC
14,< 100 nM,COc1cc(-c2ccc3c(n2)CN(c2cnn(C)c2)C3=O)cnc1OC
15,< 100 nM,COc1cc(-c2ccc3c(n2)CN(c2cnn(Cc4ccccn4)c2)C3=O)cnc1OC
16,< 100 nM,CCOc1cc(-c2cc(C)c3c(c2)CN(c2cnn(CC(F)(F)F)c2)C3=O)cnc1OCC
17,< 100 nM,COc1cc(-c2ccc3c(n2)CN(c2cnn(CC#N)c2)C3=O)cnc1OC
18,< 100 nM,CCC1(O)c2nc(-c3cnc(OC)c(OC)c3)cc(C)c2C(=O)N1c1cnn(CC(F)(F)F)c1 (stereo not drawn)
19,< 100 nM,Cc1cc(-c2cncc(C(=O)N(C)C(C)C)c2)nc2c1C(=O)N(c1cnn(CC(F)(F)F)c1)C2(C)C
20,< 100 nM,Cc1cc(-c2cncc(S(C)(=O)=O)c2)nc2c1C(=O)N(c1cnn(CC(F)(F)F)c1)C2(C)C
21,< 100 nM,COc1cc(-c2cc(C)c3c(n2)C(C)N(c2cnn(CC(F)(F)F)c2)C3=O)cnc1OC(C)C (stereo not drawn)
22,< 100 nM,C=CCNC(=O)c1cncc(-c2cc(C)c3c(n2)C(C)(C)N(c2cnn(CC(F)(F)F)c2)C3=O)c1
